From patent publication US20240285598A1 (priority 2021, published 2024) come the findings set out here.

Like-named read-outs stand apart in the source and are kept apart here.

The data set has as its system SARS-CoV-2. Description: Antiviral assay (viral RNA in culture supernatant by RT-qPCR). (Real-time PCR tracks product formation cycle by cycle.)
Setting [1] is: Severe acute respiratory syndrome coronavirus 2, 72 h, read-out: CC50 (Antiviral Data), MOI of 0.05, 72 h, 96-well plate, RT-qPCR of viral RNA.
Setting [2] is: read-out: CC50 (Antiviral Data), MOI of 0.05, 72 h, 96-well plate, RT-qPCR of viral RNA.

On to `CCCN(CCC)[C@@H]1C[C@@H](C(=O)NC(C#N)C[C@@H]2CCNC2=O)N(C(=O)[C@@H](NC(=O)C(F)(F)F)C(C)(C)C)C1` (stereo partly drawn), for which, under setting [1], the CC50 was more than 100 µM.

Take `CC(C)(C)OC(=O)N1C[C@H]2[C@@H]([C@H]1C(=O)N[C@H](C#N)C[C@@H]1CCNC1=O)C2(C)C`: under setting [1], the CC50 is more than 100 µM.

On to `CCCN(CCC)[C@@H]1C[C@@H](C(=O)NC(C#N)C[C@@H]2CCNC2=O)N(C(=O)[C@@H](NC(=O)OC(C)(C)C)C(C)(C)C)C1` (stereo partly drawn), for which, under setting [1], the CC50 lay in the range of 10.1 to 100 µM.

Regarding `CCCO[C@@H]1C[C@@H](C(=O)NC(C#N)C[C@@H]2CCNC2=O)N(C(=O)[C@@H](NC(=O)NC(C)(C)C)C(C)(C)C)C1` (stereo partly drawn), the CC50 under setting [1] is more than 100 µM.

`CC(C)(C)NC(=O)N[C@H](C(=O)N1C[C@H]2[C@@H]([C@H]1C(=O)NC(C#N)C[C@@H]1CCNC1=O)C2(C)C)C(C)(C)C` (stereo partly drawn): under setting [1], the CC50 was more than 100 µM.

Consider `CCCN(CCC)[C@@H]1C[C@@H](C(=O)NC(C#N)C[C@@H]2CCNC2=O)N(C(=O)[C@@H](NC(=O)NC(C)(C)C)C(C)(C)C)C1` (stereo partly drawn), for which the CC50 under setting [1] was more than 100 µM.

As to `CC(C)(C)[C@H](NC(=O)C(F)(F)F)C(=O)N1C[C@H](N2CCC(F)(F)CC2)C[C@H]1C(=O)NC(C#N)C[C@@H]1CCNC1=O` (stereo partly drawn), the CC50 under setting [1] is more than 100 µM.

On to `CCCN(CCC)[C@@H]1C[C@@H](C(=O)NC(C#N)C[C@@H]2CCNC2=O)N(C(=O)[C@@H](NC(=O)OCc2ccccc2)C(C)(C)C)C1` (stereo partly drawn), for which the CC50 under setting [1] lay within 10.1 to 100 µM.

In the case of `CCCN(CCC)[C@@H]1C[C@@H](C(=O)NC(C#N)C[C@@H]2CCNC2=O)N(C(=O)[C@@H](NC(=O)OCc2ccccn2)C(C)(C)C)C1` (stereo partly drawn), the CC50 under setting [1] was more than 100 µM.

`CCCN(CCC)[C@@H]1C[C@@H](C(=O)NC(C#N)C[C@@H]2CCNC2=O)N(C(=O)[C@@H](NC(=O)OCc2cccnc2)C(C)(C)C)C1` (stereo partly drawn): the CC50 under setting [1] was more than 100 µM.

On to `CCCN(CCC)[C@@H]1C[C@@H](C(=O)NC(C#N)C[C@@H]2CCNC2=O)N(C(=O)[C@@H](NC(=O)OCc2ccncc2)C(C)(C)C)C1` (stereo partly drawn), for which, under setting [1], the CC50 is more than 100 µM.

In the case of `CCCN(CCC)[C@@H]1C[C@@H](C(=O)NC(C#N)C[C@@H]2CCNC2=O)N(C(=O)C(C)(C)NC(=O)C(F)(F)F)C1` (stereo partly drawn), the CC50 under setting [1] was more than 100 µM.

In the case of `CCCN(CCC)[C@@H]1C[C@@H](C(=O)NC(C#N)C[C@@H]2CCNC2=O)N(C(=O)C(C)(C)NC(=O)OCc2ccccc2)C1` (stereo partly drawn), the CC50 under setting [1] is more than 100 µM.

As to `CC(C)(NC(=O)C(F)(F)F)C(=O)N1C[C@H]2[C@@H]([C@H]1C(=O)N[C@H](C#N)C[C@@H]1CCNC1=O)C2(C)C`, the CC50 under setting [1] was more than 100 µM.

For the compound `CC(C)(C)[C@H](NC(=O)OCc1ccccc1)C(=O)N1CCC(F)(F)C[C@H]1C(=O)NC(C#N)C[C@@H]1CCNC1=O` (stereo partly drawn), the CC50 under setting [1] was 10.1 to 100 µM.

Regarding `CC(C)(C)[C@H](NC(=O)OCc1ccncc1)C(=O)N1C[C@H]2[C@@H]([C@H]1C(=O)N[C@H](C#N)C[C@@H]1CCNC1=O)C2(C)C`, the CC50 under setting [1] lay in the range of 1 to 10 µM.

Consider `CC(C)(C)C(NC(=O)OCc1ccncc1)C(=O)N1C[C@H]2[C@@H]([C@H]1C(=O)N[C@H](C#N)C[C@@H]1CCCNC1=O)C2(C)C` (stereo partly drawn), for which, under setting [1], the CC50 was 1 to 10 µM.

As for `CCCN(CCC)[C@@H]1C[C@@H](C(=O)NC(C#N)C[C@@H]2CCNC2=O)N(C(=O)[C@@H](NC(=O)C(Cl)(Cl)Cl)C(C)(C)C)C1` (stereo partly drawn), under setting [1], the CC50 is more than 100 µM.

As to `CCCO[C@@H]1C[C@@H](C(=O)NC(C#N)C[C@@H]2CCNC2=O)N(C(=O)[C@@H](NC(=O)OC(C)(C)C)C(C)(C)C)C1` (stereo partly drawn), under setting [1], the CC50 fell in the range of 10.1 to 100 µM.

Consider `CCCO[C@@H]1C[C@@H](C(=O)NC(C#N)C[C@@H]2CCNC2=O)N(C(=O)[C@@H](NC(=O)OCc2ccccc2)C(C)(C)C)C1` (stereo partly drawn), for which, under setting [1], the CC50 was in the range of 1 to 10 µM.

For the compound `CC(C)O[C@@H]1C[C@@H](C(=O)NC(C#N)C[C@H]2CCNC2=O)N(C(=O)[C@@H](NC(=O)OCc2ccccn2)C(C)(C)C)C1` (stereo partly drawn), the CC50 under setting [1] was more than 100 µM.

For the compound `CC(C)O[C@@H]1C[C@@H](C(=O)NC(C#N)C[C@H]2CCNC2=O)N(C(=O)[C@@H](NC(=O)OCc2cccnc2)C(C)(C)C)C1` (stereo partly drawn), under setting [1], the CC50 is more than 100 µM.

For `CC(C)O[C@@H]1C[C@@H](C(=O)NC(C#N)C[C@H]2CCNC2=O)N(C(=O)[C@@H](NC(=O)OC(C)(C)C)C(C)(C)C)C1` (stereo partly drawn), the CC50 under setting [1] was 10.1 to 100 µM.

Consider `CC(C)O[C@@H]1C[C@@H](C(=O)NC(C#N)C[C@H]2CCNC2=O)N(C(=O)[C@@H](NC(=O)C(O)c2ccco2)C(C)(C)C)C1` (stereo partly drawn), for which the CC50 under setting [1] was more than 100 µM.

Turning to `CC(C)O[C@@H]1C[C@@H](C(=O)NC(C#N)C[C@H]2CCNC2=O)N(C(=O)[C@@H](NC(=O)OCc2ccncc2)C(C)(C)C)C1` (stereo partly drawn), the CC50 under setting [1] is more than 100 µM.

Regarding `CC(C)O[C@@H]1C[C@@H](C(=O)NC(C#N)C[C@H]2CCNC2=O)N(C(=O)[C@@H](NC(=O)C(F)(F)F)C(C)(C)C)C1` (stereo partly drawn), under setting [1], the CC50 fell in the range of 10.1 to 100 µM.

For the compound `CCCN(CCC)[C@@H]1C[C@@H](C(=O)N[C@H](C#N)Cc2cc(C)n[nH]2)N(C(=O)C(NC(=O)C(F)(F)F)C(C)(C)C)C1` (stereo partly drawn), under setting [1], the CC50 is more than 100 µM.

For the compound `Cc1cc(C[C@@H](C#N)NC(=O)[C@@H]2[C@@H]3[C@H](CN2C(=O)[C@H](NC(=O)C(F)(F)F)C(C)(C)C)C3(C)C)[nH]n1`, the CC50 under setting [1] fell in the range of 10.1 to 100 µM.

In the case of `CCCN(CCC)[C@@H]1C[C@@H](C(=O)NC(C#N)Cc2cc(OS(=O)(=O)c3ccc(C)cc3)n(S(=O)(=O)c3ccc(C)cc3)n2)N(C(=O)[C@@H](NC(=O)C(F)(F)F)C(C)(C)C)C1` (stereo partly drawn), the CC50 under setting [1] is more than 100 µM.

Regarding `Cc1cc(C[C@@H](C#N)NC(=O)[C@@H]2[C@@H]3[C@H](CN2C(=O)[C@H](NC(=O)C2C4CO[C@@H]5OC[C@@H]2C5C4)C(C)(C)C)C3(C)C)[nH]n1` (stereo partly drawn), the CC50 under setting [1] is more than 100 µM.

Consider `CC(C)Cc1cc(C[C@@H](C#N)NC(=O)[C@@H]2[C@@H]3[C@H](CN2C(=O)[C@H](NC(=O)C(F)(F)F)C(C)(C)C)C3(C)C)[nH]n1`, for which the CC50 under setting [1] was more than 100 µM.

In the case of `CC(C)(C)[C@@H](NC(=O)C(F)(F)F)C(=O)N1C[C@H]2[C@@H]([C@H]1C(=O)N[C@H](C#N)Cc1cc(CO)n[nH]1)C2(C)C`, under setting [1], the CC50 was more than 100 µM.

`CCCN(CCC)[C@@H]1C[C@@H](C(=O)NC(C#N)Cc2cn[nH]c2O)N(C(=O)[C@@H](NC(=O)C(F)(F)F)C(C)(C)C)C1` (stereo partly drawn): the CC50 under setting [1] is more than 100 µM.

As for `CC(C)(C)[C@H](NC(=O)C(F)(F)F)C(=O)N1C[C@H]2[C@@H]([C@H]1C(=O)NC(C#N)Cc1cn[nH]c1O)C2(C)C` (stereo partly drawn), the CC50 under setting [1] was more than 100 µM.

In the case of `CC(C)(C)C(=O)N[C@H](C(=O)N1C[C@H]2[C@@H]([C@H]1C(=O)N[C@H](C#N)C[C@@H]1CCNC1=O)C2(C)C)C(C)(C)C`, the CC50 under setting [1] fell in the range of 1 to 10 µM.

As to `CC(C)(C)[C@H](NC(=O)C(Cl)(Cl)Cl)C(=O)N1C[C@H]2[C@@H]([C@H]1C(=O)N[C@H](C#N)C[C@@H]1CCNC1=O)C2(C)C`, under setting [1], the CC50 was more than 100 µM.

As for `CC(C)(C)[C@H](NC(=O)C(F)(F)F)C(=O)N1Cc2ccccc2CC1C(=O)N[C@@H](C#N)C[C@@H]1CCNC1=O` (stereo partly drawn), under setting [1], the CC50 is more than 100 µM.

Regarding `CC(C)(C)[C@H](NC(=O)C(Cl)(Cl)Cl)C(=O)N1C[C@H]2[C@@H]([C@H]1C(=O)N[C@H](C#N)C[C@@H]1CCCNC1=O)C2(C)C`, under setting [1], the CC50 is more than 100 µM.

Consider `CC(C)(C)[C@H](NC(=O)C(F)(F)F)C(=O)N1CCN(Cc2ccccc2)CC1C(=O)N[C@@H](C#N)C[C@@H]1CCNC1=O` (stereo partly drawn), for which the CC50 under setting [1] was more than 100 µM.

For the compound `CC(C)(C)OC(=O)N[C@H](C(=O)N1CCN(C(=O)OC(C)(C)C)CC1C(=O)N[C@@H](C#N)C[C@@H]1CCNC1=O)C(C)(C)C` (stereo partly drawn), the CC50 under setting [1] is more than 100 µM.

Consider `CC(C)(C)OC(=O)N[C@H](C(=O)N1CCN(C(=O)OC(C)(C)C)C[C@H]1C(=O)NC(C#N)CC1CCNC1=O)C(C)(C)C` (stereo partly drawn), for which, under setting [1], the CC50 is more than 100 µM.

Take `CC(C)(C)OC(=O)N[C@H](C(=O)N1Cc2ccccc2C[C@H]1C(=O)NC(C#N)CC1CCNC1=O)C(C)(C)C` (stereo partly drawn): the CC50 under setting [1] was more than 100 µM.

Regarding `CC(C)(C)[C@H](NC(=O)C(F)(F)F)C(=O)N1C[C@H]2[C@@H]([C@H]1C(=O)N[C@H](C#N)C[C@@H]1CCNC1=O)C2(C)C` [drawing 61], the CC50 under setting [2] was 10.1 to 100 µM.

With `CC(C)(C)[C@H](NC(=O)C(F)(F)F)C(=O)N1C[C@H]2[C@@H]([C@H]1C(=O)N[C@H](C#N)C[C@@H]1CCCNC1=O)C2(C)C` [drawing 62], the CC50 under setting [2] lay within 10.1 to 100 µM.

In the case of `CC(C)(C)[C@H](NC(=O)c1ccccc1)C(=O)N1C[C@H]2[C@@H]([C@H]1C(=O)N[C@H](C#N)C[C@@H]1CCNC1=O)C2(C)C` [drawing 68], the CC50 under setting [1] was in the range of 10.1 to 100 µM.

On to `CC(C)(C)[C@H](NC(=O)C(F)(F)F)C(=O)N1C[C@H]2[C@@H]([C@H]1C(=O)N[C@H](C#N)C[C@@H]1CCNC1=O)C2(C)C` [drawing 94], for which the CC50 under setting [2] is more than 100 µM.

On to `CC(C)(C)[C@H](NC(=O)C(F)(F)F)C(=O)N1C[C@H]2[C@@H]([C@H]1C(=O)N[C@H](C#N)C[C@@H]1CCCNC1=O)C2(C)C` [drawing 95], for which the CC50 under setting [2] lay within 1 to 10 µM.

As to `CC(C)(C)[C@H](NC(=O)c1ccccc1)C(=O)N1C[C@H]2[C@@H]([C@H]1C(=O)N[C@H](C#N)C[C@@H]1CCNC1=O)C2(C)C` [drawing 101], the CC50 under setting [2] was in the range of 10.1 to 100 µM.
